Results on two compounds are retold here after patent US12583884B2, “3beta-(benzyloxy)-17alpha-methyl-pregn-5-en-20-one for use in the treatment of cognitive disorders” (AELIS FARMA, priority 2018, dated 2026).

The test system of data set [1] is primary culture of rat hepatocytes. Put plainly: Hepatotoxicity in primary culture of hepatocytes. Format: cell-based. The following applies: 0.1 to 100 μM; 48 hours. The method, then:
The percentage of cytolysed hepatocytes over time was determined by time lapse imaging with a fluorescent cytolysis marker. The number of bile canaliculi after 48 hours of treatment was determined using a fluorescent bile salt analog.
Primary rat hepatocytes from 10-12 weeks old Wistar rats were isolated using a two-step collagenase perfusion method. After 24 hours, cells were covered with a layer of Matrigel to perform a sandwich configuration culture. […] Cells were then stained using a fluorescent bile salt analog to measure the bile canaliculi network state and the Bsep pump activity. Acetaminophen (30 mM) and Cyclosporin A (1 μM) were added as positive controls of hepatotoxicity and biliary canaliculi loss, respectively.

Data set [2] concerns the target Muscarinic M2 (Homo sapiens, UniProt P08172). Put plainly: CEREP binding profile: M2. From the text: (§1) The CEREP High-throughput profile consists of a broad collection of 80 transmembrane and soluble receptors, ion channels and G-Protein coupled receptors.
In data set [3] the test system is Ts65Dn mice. In words: Short-term sequential object recognition, Down syndrome model. Particulars: 0.6 μg/ml in drinking water, 2 months, delays 5 and 35 min. It is filed as in vivo, mouse. As to the method: Mice were allowed to explore 3 different objects (A, B, C) presented one after the other and following one of the two possible sequences: A-C-C-B-A and A-B-C-C-A. In an open field, mice were exposed to object A for 5 min and then placed back into their home cage. After a delay of 5 minutes, mice were exposed to object B or C for 5 min and then placed back into their home cage, and so on. Consequently, the retention delay between two presentations of object C was of 5 minutes whereas the retention delay between two presentations of object A was of 35 minutes. The time spent exploring object A or C at the first presentation was compared with the time exploring the same object at the second presentation. This parameter is used to evaluate object recognition performances.
Before the object recognition procedure, mice were tested in the radial maze.

For data set [4], the target named is Neurotensin NTS1 (NT1) (Homo sapiens, UniProt P30989). Put plainly: CEREP binding profile: NTS1.
Neurotensin NTS1 (NT1), sequence (P30989 whole entry): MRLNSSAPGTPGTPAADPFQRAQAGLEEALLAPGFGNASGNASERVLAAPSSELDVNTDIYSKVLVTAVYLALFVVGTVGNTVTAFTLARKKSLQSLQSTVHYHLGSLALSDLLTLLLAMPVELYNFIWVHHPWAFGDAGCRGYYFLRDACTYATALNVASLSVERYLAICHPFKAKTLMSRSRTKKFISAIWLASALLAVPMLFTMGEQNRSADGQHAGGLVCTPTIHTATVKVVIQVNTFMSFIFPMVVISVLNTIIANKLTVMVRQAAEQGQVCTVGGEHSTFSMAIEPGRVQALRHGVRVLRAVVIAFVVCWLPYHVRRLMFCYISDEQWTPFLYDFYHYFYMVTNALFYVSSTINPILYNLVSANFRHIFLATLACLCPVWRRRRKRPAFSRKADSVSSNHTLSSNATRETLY
Source text: as §1

The test system of data set [5] is Ca2+ channels Ca2+-L. In words: CEREP binding profile: Ca2+-L. The following applies: 10 μM.
Source text: as §1

Data set [6] concerns the target T1, Chemokines CCR1 (Homo sapiens, UniProt P32246).
T1 construct: CEREP
In words: CEREP binding profile: CCR1.
Source text: as §1

Data set [7] relates to Ts65Dn mice. In words: Declarative/relational memory (radial maze flexibility test), Down syndrome model. It is filed as in vivo, mouse. The following applies: 0.6 μg/ml in drinking water. The method, then: The relational memory task was performed using 8-arm radial mazes. The diameter of the central platform was 30 cm and the arms were 55 cm length; 10 cm width and 100 cm height from the floor. Each arm was equipped with a retractable door at its entrance and with a food-pellet delivering system at its end. Each maze was placed in a room containing visual cues on the walls to enable spatial discrimination. There was no intra-maze cue. Each maze was fully automated by videotracking (IMETRONIC Pessac—France). This allowed to automatically control the doors of the arms (opening/closure) and food delivery according to the location of the mouse.
Food-restricted mice (85% of their original body weight all throughout the study) were first submitted to 3 sessions of habituation to the mazes. During each habituation session, the mouse freely explored the maze until it visited each of the 8 arms, or 30 min elapsed. At the beginning of each habituation session, the mouse was placed in the central platform with all the arms closed. […]
The number of correct responses was measured at each session. […]
At the end of the behavioral study, mice were sacrificed, blood and brain samples were collected. 3Bn17MeP was quantified by LC/MS-MS chromatography in both plasma and brain.

For data set [8], the target named is Neurokinin NK3 (Homo sapiens, UniProt P29371). Put plainly: CEREP binding profile: NK3.
Neurokinin NK3, sequence (P29371 whole entry): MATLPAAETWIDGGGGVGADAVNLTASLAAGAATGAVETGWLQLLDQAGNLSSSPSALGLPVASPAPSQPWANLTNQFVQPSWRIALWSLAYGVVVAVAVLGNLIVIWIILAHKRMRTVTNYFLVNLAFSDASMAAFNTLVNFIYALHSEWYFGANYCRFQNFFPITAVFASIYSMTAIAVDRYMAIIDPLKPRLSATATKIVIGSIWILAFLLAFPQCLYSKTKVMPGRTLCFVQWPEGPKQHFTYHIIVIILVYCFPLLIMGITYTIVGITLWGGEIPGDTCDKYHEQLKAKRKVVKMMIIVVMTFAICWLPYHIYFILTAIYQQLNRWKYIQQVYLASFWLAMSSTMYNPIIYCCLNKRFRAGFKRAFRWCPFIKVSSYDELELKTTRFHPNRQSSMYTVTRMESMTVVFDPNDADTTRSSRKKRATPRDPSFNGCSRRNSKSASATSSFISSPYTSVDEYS
Source text: as §1

Data set [9] addresses T2, Steroid nuclear receptors GR (Homo sapiens, UniProt P04150).
T2 construct: CEREP
In words: CEREP binding profile: GR.
Source text: as §1

Data set [10] in a line: in vivo. The following applies: both, Sprague-Dawley, rat, 20 mg/kg. As to the method:
Blood samples for plasma drug analysis were collected after the last treatment, at 5 and 24 hours post-dose. Quantification was done by LC/MS-MS chromatography.

The target in data set [11] is Neuropetide Y Y2 (Homo sapiens, UniProt P49146). Put plainly: CEREP binding profile: Y2.
Neuropetide Y Y2, sequence (P49146 whole entry): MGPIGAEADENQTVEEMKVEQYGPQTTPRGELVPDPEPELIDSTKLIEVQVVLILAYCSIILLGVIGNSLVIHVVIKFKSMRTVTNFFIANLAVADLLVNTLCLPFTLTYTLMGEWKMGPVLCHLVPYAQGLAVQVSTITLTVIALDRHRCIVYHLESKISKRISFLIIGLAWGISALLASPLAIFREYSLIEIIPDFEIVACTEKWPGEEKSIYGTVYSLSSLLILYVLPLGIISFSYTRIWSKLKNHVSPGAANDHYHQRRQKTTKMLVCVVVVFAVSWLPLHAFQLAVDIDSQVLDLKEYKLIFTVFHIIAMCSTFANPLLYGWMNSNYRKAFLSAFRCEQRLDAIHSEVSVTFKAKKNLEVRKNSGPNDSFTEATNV
Source text: as §1

Data set [12] addresses T3, Angiotensin-II AT1 (Homo sapiens, UniProt P30556).
T3 construct: CEREP
Put plainly: CEREP binding profile: AT1.
Source text: as §1

For data set [13], the system named is Bombesin BB. Put plainly: CEREP binding profile: BB. Particulars: 10 μM.
Source text: as §1

Data set [14] deals with PXR (non-steroid nuclear receptor) (Homo sapiens, UniProt O75469). In words: in vitro.
PXR (non-steroid nuclear receptor), sequence (O75469 whole entry): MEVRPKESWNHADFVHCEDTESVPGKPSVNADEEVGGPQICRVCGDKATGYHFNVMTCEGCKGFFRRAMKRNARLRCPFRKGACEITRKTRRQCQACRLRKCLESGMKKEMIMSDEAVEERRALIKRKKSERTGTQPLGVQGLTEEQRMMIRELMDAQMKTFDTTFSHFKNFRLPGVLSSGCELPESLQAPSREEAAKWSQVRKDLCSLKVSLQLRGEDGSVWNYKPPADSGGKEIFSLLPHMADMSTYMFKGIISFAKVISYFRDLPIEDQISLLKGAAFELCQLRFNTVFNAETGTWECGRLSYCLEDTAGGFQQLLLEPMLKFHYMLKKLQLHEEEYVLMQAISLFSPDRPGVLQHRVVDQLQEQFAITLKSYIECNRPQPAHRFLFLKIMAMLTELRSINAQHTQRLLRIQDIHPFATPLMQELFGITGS
Source text: as §1

In data set [15] the target is Neuropetide Y N1 (Homo sapiens, UniProt P25929). In words: CEREP binding profile: N1.
Neuropetide Y N1, sequence (P25929 whole entry): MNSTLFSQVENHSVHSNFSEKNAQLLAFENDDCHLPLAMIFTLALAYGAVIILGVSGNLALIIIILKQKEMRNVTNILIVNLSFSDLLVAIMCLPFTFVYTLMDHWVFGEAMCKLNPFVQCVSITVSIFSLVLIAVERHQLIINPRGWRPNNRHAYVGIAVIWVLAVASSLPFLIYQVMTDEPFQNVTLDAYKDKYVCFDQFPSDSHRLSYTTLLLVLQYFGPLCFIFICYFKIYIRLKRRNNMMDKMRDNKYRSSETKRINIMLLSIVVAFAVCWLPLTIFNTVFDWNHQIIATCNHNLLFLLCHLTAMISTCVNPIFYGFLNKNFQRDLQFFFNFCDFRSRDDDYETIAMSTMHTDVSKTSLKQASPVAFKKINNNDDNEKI
Source text: as §1

Where two headings read alike, the source gives them in different places.

T1 sequence (P32246 whole entry): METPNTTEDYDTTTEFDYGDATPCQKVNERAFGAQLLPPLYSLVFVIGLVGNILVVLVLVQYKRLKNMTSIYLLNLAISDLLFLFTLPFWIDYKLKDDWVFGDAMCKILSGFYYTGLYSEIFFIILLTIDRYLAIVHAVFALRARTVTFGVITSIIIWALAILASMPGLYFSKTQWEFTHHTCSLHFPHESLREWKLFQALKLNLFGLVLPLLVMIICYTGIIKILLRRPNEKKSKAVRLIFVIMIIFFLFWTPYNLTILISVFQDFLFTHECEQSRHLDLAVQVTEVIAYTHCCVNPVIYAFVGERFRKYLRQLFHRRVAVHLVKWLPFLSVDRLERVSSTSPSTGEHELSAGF
Muscarinic M2, sequence (P08172 whole entry): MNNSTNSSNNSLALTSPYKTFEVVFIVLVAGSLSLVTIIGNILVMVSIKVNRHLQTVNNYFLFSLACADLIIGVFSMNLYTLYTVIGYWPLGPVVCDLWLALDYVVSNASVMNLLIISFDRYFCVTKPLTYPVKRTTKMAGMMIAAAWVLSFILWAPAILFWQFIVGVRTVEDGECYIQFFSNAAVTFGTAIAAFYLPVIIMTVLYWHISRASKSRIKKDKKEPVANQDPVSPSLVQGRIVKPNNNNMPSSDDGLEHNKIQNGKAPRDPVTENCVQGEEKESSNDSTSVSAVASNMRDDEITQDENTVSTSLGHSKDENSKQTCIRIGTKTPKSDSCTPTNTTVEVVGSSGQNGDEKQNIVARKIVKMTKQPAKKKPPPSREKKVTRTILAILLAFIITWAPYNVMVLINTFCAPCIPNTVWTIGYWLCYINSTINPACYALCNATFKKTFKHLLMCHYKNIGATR
T3 sequence (P30556 whole entry): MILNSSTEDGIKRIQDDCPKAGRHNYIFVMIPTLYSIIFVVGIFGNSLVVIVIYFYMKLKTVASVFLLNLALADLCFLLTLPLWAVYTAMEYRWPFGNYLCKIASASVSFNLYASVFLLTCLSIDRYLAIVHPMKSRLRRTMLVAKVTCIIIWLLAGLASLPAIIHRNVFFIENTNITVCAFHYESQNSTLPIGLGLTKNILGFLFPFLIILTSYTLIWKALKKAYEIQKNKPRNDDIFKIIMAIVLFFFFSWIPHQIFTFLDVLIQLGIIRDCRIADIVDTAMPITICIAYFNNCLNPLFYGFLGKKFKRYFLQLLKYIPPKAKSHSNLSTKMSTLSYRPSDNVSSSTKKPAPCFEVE
T2 sequence (P04150 whole entry): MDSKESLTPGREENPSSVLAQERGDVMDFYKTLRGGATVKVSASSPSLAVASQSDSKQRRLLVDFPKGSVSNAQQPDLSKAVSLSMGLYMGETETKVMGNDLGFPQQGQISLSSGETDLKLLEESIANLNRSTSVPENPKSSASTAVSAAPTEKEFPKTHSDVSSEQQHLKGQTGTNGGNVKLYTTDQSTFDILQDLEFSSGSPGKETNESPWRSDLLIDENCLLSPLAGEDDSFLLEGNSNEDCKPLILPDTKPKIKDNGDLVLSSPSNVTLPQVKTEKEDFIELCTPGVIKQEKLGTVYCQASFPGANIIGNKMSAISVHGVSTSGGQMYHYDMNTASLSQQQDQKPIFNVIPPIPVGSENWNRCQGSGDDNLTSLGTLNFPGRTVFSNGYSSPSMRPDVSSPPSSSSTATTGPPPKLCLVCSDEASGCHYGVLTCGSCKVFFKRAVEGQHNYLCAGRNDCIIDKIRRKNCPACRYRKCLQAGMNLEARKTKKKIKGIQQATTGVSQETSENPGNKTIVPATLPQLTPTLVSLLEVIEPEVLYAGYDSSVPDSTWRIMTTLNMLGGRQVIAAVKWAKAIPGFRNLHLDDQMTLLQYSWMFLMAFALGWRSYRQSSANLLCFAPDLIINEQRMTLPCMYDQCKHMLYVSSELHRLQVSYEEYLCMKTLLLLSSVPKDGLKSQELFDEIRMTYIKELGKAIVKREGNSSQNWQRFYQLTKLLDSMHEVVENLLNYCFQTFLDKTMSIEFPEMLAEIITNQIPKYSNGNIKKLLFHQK

Take `CC(=O)[C@@]1(C)CC[C@H]2[C@@H]3CC=C4C[C@@H](OCc5ccccc5)CC[C@]4(C)[C@H]3CC[C@@]21C` [3Bn17MeP, 3β-benzyloxy, 17α-methyl-pregn-5-en-20-one]: the “Hepatotoxic effect (hepatocyte survival)” value in data set [1] is on record as “no hepatotoxic effect”. The inhibition at 10 µM in data set [2] was -17%; in [4], -13%; in data set [6], -13%; in [8] it was 7%; in [9], -2%; in data set [11], -6%. Further, the inhibition at 10 µM in [12] is -13%; in data set [14] it was -8%; in [15] it was -32%. The “Exploration of the familiar object (short-term sequential object recognition)” value in data set [3] is “explored significantly less the familiar object after 5 and 35 minutes”. Also, the entries for the “% Inhibition” value in data set [5] and in data set [13] were 12% and −6%, respectively. Moreover, the “Choice accuracy in the flexibility test (declarative/relational memory)” value in data set [7] was “enhanced choice accuracy of Ts65Dn mice that reached the level of WT”. In data set [10], this compound yielded a concentration at 5 h of 4650 ng/mL. Moreover, the concentration at 24 h in data set [10] was found to be 974 ng/mL.
Turning to `CC(=O)[C@H]1CC[C@H]2[C@@H]3CC=C4C[C@@H](O)CC[C@]4(C)[C@H]3CC[C@]12C` [pregnenolone, reference compound], the inhibition at 10 µM was -4% in data set [2] (M2, 10 μM, read-out: % Inhibition); -19% in data set [4]; -10% in [6]; 11% in [8]; -9% in [11]; -28% in data set [12]. The inhibition at 10 µM in data set [14] (PXR receptor binding assay (ligand displacement)) was 15%; in [15] it was -11%. Besides, the “% Inhibition” value in [5] was −19%; in data set [13] it was −18%.

As a reminder, the inhibition is the change of the read-out against control, counted positive when it falls. As a reminder, the % Inhibition is the drop in the measured response relative to a control, in per cent.
